Drawing on US10201556B2, “Combination for use in treating diseases or conditions associated with melanoma, or treating diseases or conditions associated with activated B-raf pathway” (InteRNA Technologies B.V., priority 2012, dated 2019), this text covers GI50 for one molecule.

Assay [1] concerns A2058 melanoma cell line. Put plainly: Anti-proliferative effect of small molecules, MTS assay. The format is cell-based. The conditions noted are these: Homo sapiens, A2058, intrinsic resistance, 72 hours. As for the experimental part:
(§1) The anti-proliferative effect of small molecules in melanoma cell lines was determined with V600E BRAF inhibitor, vemurafenib (PLX-4032, 51267, Selleck) and MEK inhibitor, selumetinib (AZD-6244, S1008, Selleck). For each cell line optimal growth conditions were determined prior to the experiment. Cells were plated in a 96-well plate at 3000 cells per well (100 uL) and were grown at 37 C, 5% CO2. Small molecule mix (50 uL per well) was made for each concentration in medium. Cells were treated in triplicate 24 hours after plating. After 72 hours medium was replaced and viability was measured with the MTS assay (Promega) according to manufacturer's instructions. Cell viability inhibition is normalized against loading control (0.1% DMSO) and GraphPad Prism was used to fit the curve and calculate GI50 values.

For assay [2], the system named is A375Hu melanoma cell line. Described as above. The format is cell-based. The following applies: Homo sapiens, A-375, 72 h, A375Hu (A375), vemurafenib sensitive. As for the experimental part:
as §1

Assay [3] relates to M249 melanoma cell line. The description is as above. Format: cell-based. The following applies: M249, 72 h, M249, vemurafenib sensitive. As to the method: as §1
Assay [4] relates to M249-R4 melanoma cell line. Described as above. Format: cell-based. The following applies: M249-R4 (M249-AR4), in vitro acquired resistance, 72 hours. As to the method:
as §1

For assay [5], the system named is RPMI-7951 melanoma cell line. Described as above. The conditions noted are these: Homo sapiens; RPMI-7951, intrinsic resistance; 72 hours, MTS. The format is cell-based. As for the experimental part:
as §1

The test system of assay [6] is A375Hu-R1 (vemurafenib resistant clone of A375Hu). Described as above. The following applies: Homo sapiens, A375Hu-R1 (A375-R), in vitro acquired resistance, 72 hours. The format is cell-based. As for the experimental part: as §1
The A375Hu melanoma cell line was used to make a vemurafenib (PLX-4032) resistant sub line. A375Hu cells were plated at low density in 96-well plates and exposed to 1 uM PLX-4032. Cell growth was monitored until clonal growth was observed. Wells with clonal growth (approximately 5%) were replated in a 96-well plate and exposed to 1 uM PLX-4032. The 10 best growing clones were replated in 6-well plates in 1 uM PLX-4032 and the three best growing clones were used for further culturing. Clone number 1 (A375Hu-R1) grew best with 1 uM PLX-4032 and was chosen for additional experiments.

Assay [7] deals with SKMEL-57 melanoma cell line. Described as above. Format: cell-based. The following applies: SKMEL-57, vemurafenib sensitive. As to the method:
as §1
A375 cells were obtained from the Hubrecht Institute (Utrecht, The Netherlands); SKMEL-28, A2058 and RPMI-7951 were from the ATCC; SKMEL-57 was a gift from Dr. Patricia Groenen (Radboud University Nijmegen Medical Centre, The Netherlands); for cell line characteristics of M249, M249-AR4, M233 and M376 see (Atefi et al. 2011). A375-R, with in vitro acquired resistance to vemurafenib, was established in our lab by clonal selection of cells continually exposed to 1 μM vemurafenib. A375, A375-R, SKMEL-28, A2058 and SKMEL-57 were grown in DMEM GlutaMAX™-I (Gibco®), all other cell lines in RPMI-1640 (Gibco®). Media was supplemented with 10% FBS (Sigma), and cells were maintained in a humidified 37° C. incubator (Thermo Scientific) with 5% CO2. Vemurafenib (PLX4032; Selleck Chemicals) was diluted in DMSO to a stock concentration of 10 mM.

Assay [8] deals with M233 melanoma cell line. The following applies: M233; value marked with footnote 1) Atefi M. et al.; cited from earlier work.
In assay [9] the test system is M376 melanoma cell line. The conditions noted are these: M376; value marked with footnote 1) Atefi M. et al.; cited from earlier work.

A value given as a limit tells only on which side of the number the result lay.

For `Cn1cnc2c(F)c(Nc3ccc(Br)cc3Cl)c(C(=O)NOCCO)cc21` [Selumetinib, 6-(4-bromo-2-chlorophenylamino)-7-fluoro-N-(2-hydroxyethoxy)-3-methyl-3H-benzo[d]imidazole-5-carboxamide], the 50% growth inhibitory concentration (GI50) in assay [1] is greater than 10000 nM; in [2], 50 nM; in assay [3], 100 nM; in [4], 2910 nM; in [5] it was greater than 10000 nM; in assay [6] it was greater than 10000 nM. Moreover, the GI50 in assay [7] is 700 nM; in assay [8], greater than 10000 nM; in assay [9], 1000 nM.
